In ChEMBL document CHEMBL4680094, “Insights of a Lead Optimization Study and Biological Evaluation of Novel 4-Hydroxytamoxifen Analogs as Estrogen-Related Receptor γ (ERRγ) Inverse Agonists” (J Med Chem, 2016):
pIC50: −log10 of the molar value. Calls of active or inactive are those of the source. The rule behind the calls is not given here.

Tests used:
[1] = molecular target: CYP2C19 (Homo sapiens, UniProt P33261); assay: Inhibition of CYP2C19 in human liver microsomes assessed as reduction in S-mephenytoin 4-hydroxylase activity at 10 uM preincubated for 5 mins followed by addition of NADPH-regenerating system and measured after 15 mins by LC-MS/MS analysis relative to control; type: ADME; details: probe S-mephenytoin (4-hydroxylase activity), time 20 min
[2] = molecular target: hERG (KCNH2) (Homo sapiens, UniProt Q12809); assay: (§1) Inhibition of human ERG measured after 4 hrs by fluorescence polarization assay; details: human
[3] = molecular target: T1, Steroid hormone receptor ERR2 (Homo sapiens, UniProt O95718); assay: Binding affinity to GST-tagged ERRbeta LBD (unknown origin) using fluorescein PGC1alpha as coactivator incubated for 1 hr by LanthaScreen TR-FRET co-regulator assay
T1 sequence (O95718 whole entry): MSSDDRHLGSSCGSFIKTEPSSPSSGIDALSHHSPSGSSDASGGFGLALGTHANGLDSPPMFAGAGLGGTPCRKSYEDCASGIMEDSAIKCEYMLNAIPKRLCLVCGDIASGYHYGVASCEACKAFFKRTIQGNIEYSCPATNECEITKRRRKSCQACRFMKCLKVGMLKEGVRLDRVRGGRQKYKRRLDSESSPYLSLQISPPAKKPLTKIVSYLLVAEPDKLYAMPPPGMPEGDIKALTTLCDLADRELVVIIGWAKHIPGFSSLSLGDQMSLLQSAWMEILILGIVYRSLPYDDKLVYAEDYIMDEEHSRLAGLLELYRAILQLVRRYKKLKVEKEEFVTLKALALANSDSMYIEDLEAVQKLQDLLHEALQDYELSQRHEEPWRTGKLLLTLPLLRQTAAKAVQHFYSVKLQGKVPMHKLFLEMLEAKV

[4] = molecular target: T2, Estrogen receptor (Homo sapiens, UniProt P03372); assay: Binding affinity to GST-tagged ERalpha LBD (unknown origin) using fluorescein PGC1alpha as coactivator incubated for 1 hr by LanthaScreen TR-FRET co-regulator assay
T2 sequence (P03372 whole entry): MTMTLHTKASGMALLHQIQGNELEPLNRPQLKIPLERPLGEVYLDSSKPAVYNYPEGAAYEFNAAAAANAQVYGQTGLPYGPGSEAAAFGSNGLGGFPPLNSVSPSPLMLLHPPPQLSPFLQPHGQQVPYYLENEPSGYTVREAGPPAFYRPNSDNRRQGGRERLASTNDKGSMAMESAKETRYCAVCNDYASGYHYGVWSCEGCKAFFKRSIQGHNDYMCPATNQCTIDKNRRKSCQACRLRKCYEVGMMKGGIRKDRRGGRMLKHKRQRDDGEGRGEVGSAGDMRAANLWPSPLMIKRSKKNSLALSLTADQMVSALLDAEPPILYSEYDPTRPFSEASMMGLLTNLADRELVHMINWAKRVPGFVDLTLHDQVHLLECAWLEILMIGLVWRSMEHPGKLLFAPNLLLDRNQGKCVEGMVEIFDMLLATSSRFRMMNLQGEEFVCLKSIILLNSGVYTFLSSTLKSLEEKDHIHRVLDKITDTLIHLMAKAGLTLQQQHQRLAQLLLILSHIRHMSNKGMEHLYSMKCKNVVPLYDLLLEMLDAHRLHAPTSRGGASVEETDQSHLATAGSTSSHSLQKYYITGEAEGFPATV

[5] = Metabolic stability in human liver microsome assessed as parent compound remaining at 1 uM incubated for 30 mins in presence of NADPH generating system by LC-MS/MS analysis; type: ADME; details: liver microsomes, read-out: Stabilty
[6] = Effective permeability of compound at 10 uM in PBS buffer at pH 7.4 after 5 hrs by LC-MS/MS analysis based PAMPA method; type: ADME; details: read-out: Peff
[7] = molecular target: CYP2C9 (Homo sapiens, UniProt P11712); assay: Inhibition of CYP2C9 in human liver microsomes assessed as reduction in tolbutamide 4-hydroxylase activity at 10 uM preincubated for 5 mins followed by addition of NADPH-regenerating system and measured after 15 mins by LC-MS/MS analysis relative to control; type: ADME; details: probe tolbutamide (4-hydroxylase activity), time 20 min
[8] = Metabolic stability in rat liver microsome assessed as parent compound remaining at 1 uM incubated for 30 mins in presence of NADPH generating system by LC-MS/MS analysis; type: ADME; details: liver microsomes, read-out: Stabilty
[9] = molecular target: CYP2D6 (Homo sapiens, UniProt P10635); assay: Inhibition of CYP2D6 in human liver microsomes assessed as reduction in dextromethorphan O-demethylase activity at 10 uM preincubated for 5 mins followed by addition of NADPH-regenerating system and measured after 15 mins by LC-MS/MS analysis relative to control; type: ADME; details: probe dextromethorphan (O-demethylase activity), time 20 min
[10] = molecular target: T3, CYP1A2 (Homo sapiens, UniProt P05177); assay: Inhibition of CYP1A2 in human liver microsomes assessed as reduction in phenacetin O-deethylase activity at 10 uM preincubated for 5 mins followed by addition of NADPH-regenerating system and measured after 15 mins by LC-MS/MS analysis relative to control; type: ADME; details: probe phenacetin (O-deethylase activity), time 20 min
T3 sequence (P05177 whole entry): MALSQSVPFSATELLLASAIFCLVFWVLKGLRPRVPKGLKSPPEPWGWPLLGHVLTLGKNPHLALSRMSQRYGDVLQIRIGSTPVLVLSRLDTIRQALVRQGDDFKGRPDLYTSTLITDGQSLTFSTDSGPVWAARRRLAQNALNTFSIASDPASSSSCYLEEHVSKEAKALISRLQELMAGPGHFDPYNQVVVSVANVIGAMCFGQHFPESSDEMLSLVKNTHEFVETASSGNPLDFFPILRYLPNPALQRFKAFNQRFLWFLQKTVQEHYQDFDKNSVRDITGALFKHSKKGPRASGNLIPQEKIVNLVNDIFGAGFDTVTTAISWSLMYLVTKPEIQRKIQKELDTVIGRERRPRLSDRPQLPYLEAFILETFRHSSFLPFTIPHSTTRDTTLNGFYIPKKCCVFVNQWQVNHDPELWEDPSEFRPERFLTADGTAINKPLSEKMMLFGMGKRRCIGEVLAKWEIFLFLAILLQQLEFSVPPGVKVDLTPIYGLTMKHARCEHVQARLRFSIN

[11] = molecular target: T4, Steroid hormone receptor ERR1 (Homo sapiens, UniProt P11474); assay: Binding affinity to GST-tagged ERRalpha LBD (unknown origin) using fluorescein PGC1alpha as coactivator incubated for 1 hr by LanthaScreen TR-FRET co-regulator assay
T4 sequence (P11474 whole entry): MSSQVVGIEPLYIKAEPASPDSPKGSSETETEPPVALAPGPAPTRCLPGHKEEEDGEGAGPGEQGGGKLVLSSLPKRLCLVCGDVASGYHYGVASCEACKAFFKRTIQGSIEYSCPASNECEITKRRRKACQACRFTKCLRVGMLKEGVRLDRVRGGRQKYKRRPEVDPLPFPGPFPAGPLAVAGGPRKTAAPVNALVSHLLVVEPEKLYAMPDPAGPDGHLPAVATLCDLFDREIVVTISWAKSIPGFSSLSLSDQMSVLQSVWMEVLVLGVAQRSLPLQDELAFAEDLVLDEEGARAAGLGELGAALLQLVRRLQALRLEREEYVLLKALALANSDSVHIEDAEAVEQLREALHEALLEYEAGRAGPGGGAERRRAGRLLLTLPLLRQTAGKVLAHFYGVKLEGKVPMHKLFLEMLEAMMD

[12] = molecular target: CYP3A4 (Homo sapiens, UniProt P08684); assay: Inhibition of CYP3A4 in human liver microsomes assessed as reduction in midazolam 1-hydroxylase activity at 10 uM preincubated for 5 mins followed by addition of NADPH-regenerating system and measured after 15 mins by LC-MS/MS analysis relative to control; type: ADME; details: probe midazolam (1-hydroxylase activity), time 20 min
[13] = tested on: CAL-62; assay: Anticlonogenic activity against human CAL-62 cells assessed as colony forming units level in absence of [131I] at 20 uM incubated for 24 hrs by crystal violet staining based assay; type: ADME, cell-based; details: cal-62, 24 h
[14] = tested on: CAL-62; assay: Potentiation of radioiodine therapy-mediated cytotoxicity against human CAL-62 cells assessed as colony forming units level in presence of [131I] at 20 uM preincubated for 24 hrs followed by [131I] addition and measured after 6 hrs by crystal violet staining based assay (reference value: 97.5 +/- 2%); type: functional; details: time 30 hrs
[15] = molecular target: T5, Estrogen-related receptor gamma (Homo sapiens, UniProt P62508)
T5 sequence (P62508 whole entry): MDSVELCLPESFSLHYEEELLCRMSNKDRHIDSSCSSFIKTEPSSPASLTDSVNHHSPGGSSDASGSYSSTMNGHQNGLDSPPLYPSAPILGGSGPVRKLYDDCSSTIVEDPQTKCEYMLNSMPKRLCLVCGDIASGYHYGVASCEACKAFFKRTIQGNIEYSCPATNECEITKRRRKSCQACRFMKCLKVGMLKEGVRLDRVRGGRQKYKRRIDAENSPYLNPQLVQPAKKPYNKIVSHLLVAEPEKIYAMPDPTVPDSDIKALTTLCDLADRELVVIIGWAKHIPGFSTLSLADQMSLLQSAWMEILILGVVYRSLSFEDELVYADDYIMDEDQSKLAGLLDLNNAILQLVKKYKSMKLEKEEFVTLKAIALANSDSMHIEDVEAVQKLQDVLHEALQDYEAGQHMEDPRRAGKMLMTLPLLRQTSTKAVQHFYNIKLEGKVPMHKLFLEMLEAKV

[16] = molecular target: Voltage-gated inwardly rectifying potassium channel KCNH2 (Homo sapiens, UniProt Q12809); assay: as §1
[17] = Clearance in Sprague-Dawley rat at 10 mg/kg, po or 1 mg/kg, iv measured upto 8 hrs by LC-MS/MS analysis; type: ADME, organism-based; details: in vivo
[18] = tested on: CAL-62; assay: Antiproliferative activity against human CAL-62 cells at 20 uM assessed as reduction in cell proliferation; type: functional, cell-based
[19] = Oral bioavailability in Sprague-Dawley rat at 10 mg/kg, administered via gavage measured upto 8 hrs by LC-MS/MS analysis; type: ADME, organism-based; details: in vivo
[20] = tested on: CAL-62; assay: Antiproliferative activity against human CAL-62 cells at 10 uM assessed as reduction in cell proliferation; type: functional, cell-based
[21] = Volume of distribution at steady state in Sprague-Dawley rat at 10 mg/kg, po or 1 mg/kg, iv measured upto 8 hrs by LC-MS/MS analysis; type: ADME, organism-based; details: in vivo, read-out: Vdss
[22] = Half-life in Sprague-Dawley rat at 10 mg/kg, po or 1 mg/kg, iv measured upto 8 hrs by LC-MS/MS analysis; type: ADME, organism-based; details: in vivo

Chain of CYP2C9 (P11712 whole entry): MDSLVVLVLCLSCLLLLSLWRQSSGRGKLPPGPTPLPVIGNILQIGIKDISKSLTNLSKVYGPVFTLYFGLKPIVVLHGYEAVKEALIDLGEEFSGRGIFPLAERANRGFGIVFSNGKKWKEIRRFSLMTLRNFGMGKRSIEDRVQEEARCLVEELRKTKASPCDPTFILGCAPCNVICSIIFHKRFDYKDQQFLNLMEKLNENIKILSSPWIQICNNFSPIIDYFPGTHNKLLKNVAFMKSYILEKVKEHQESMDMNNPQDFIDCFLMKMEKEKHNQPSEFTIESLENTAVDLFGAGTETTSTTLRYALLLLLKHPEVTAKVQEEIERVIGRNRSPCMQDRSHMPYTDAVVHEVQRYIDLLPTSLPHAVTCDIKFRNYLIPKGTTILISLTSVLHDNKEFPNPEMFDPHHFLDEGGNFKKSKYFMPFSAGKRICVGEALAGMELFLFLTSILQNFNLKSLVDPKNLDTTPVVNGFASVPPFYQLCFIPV
Chain of CYP3A4 (P08684 whole entry): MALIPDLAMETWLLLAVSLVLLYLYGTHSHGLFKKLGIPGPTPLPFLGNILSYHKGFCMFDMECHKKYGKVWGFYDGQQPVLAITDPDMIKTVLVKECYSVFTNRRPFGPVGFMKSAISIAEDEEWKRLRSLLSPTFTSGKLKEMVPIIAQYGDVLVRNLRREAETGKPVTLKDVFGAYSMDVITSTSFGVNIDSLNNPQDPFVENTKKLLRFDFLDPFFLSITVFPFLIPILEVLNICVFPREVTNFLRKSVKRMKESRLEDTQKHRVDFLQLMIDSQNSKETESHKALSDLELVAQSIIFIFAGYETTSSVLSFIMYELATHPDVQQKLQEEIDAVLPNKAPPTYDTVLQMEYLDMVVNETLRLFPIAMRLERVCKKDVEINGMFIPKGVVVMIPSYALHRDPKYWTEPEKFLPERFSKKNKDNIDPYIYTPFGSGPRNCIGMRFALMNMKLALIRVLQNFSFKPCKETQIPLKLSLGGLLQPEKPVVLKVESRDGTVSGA
Chain of CYP2D6 (P10635 whole entry): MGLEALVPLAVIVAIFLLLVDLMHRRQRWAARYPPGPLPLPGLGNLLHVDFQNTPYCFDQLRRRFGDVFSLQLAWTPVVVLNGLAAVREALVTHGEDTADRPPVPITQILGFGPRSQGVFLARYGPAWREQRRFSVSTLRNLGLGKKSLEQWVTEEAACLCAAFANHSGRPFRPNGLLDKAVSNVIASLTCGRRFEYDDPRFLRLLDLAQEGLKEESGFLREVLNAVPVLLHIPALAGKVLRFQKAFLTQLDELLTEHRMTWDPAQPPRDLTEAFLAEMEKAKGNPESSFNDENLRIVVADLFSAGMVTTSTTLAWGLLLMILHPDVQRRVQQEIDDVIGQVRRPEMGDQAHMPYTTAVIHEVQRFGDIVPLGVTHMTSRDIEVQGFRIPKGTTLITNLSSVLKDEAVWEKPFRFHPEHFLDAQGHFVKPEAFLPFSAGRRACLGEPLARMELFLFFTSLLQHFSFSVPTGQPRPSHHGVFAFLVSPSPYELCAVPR
Chain of CYP2C19 (P33261 whole entry): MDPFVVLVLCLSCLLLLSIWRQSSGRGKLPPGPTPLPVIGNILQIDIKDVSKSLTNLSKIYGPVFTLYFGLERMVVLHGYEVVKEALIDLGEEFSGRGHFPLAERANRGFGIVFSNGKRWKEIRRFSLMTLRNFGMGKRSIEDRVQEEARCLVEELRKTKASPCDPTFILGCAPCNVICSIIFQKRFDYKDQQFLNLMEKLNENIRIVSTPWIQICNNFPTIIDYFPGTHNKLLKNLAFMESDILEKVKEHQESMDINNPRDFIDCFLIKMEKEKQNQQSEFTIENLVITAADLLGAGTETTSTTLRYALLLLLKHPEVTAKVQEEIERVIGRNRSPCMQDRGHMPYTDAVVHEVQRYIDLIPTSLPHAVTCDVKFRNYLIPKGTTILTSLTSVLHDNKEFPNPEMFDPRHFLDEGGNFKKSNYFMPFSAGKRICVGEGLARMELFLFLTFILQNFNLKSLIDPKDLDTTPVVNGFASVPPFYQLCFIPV
Chain of Voltage-gated inwardly rectifying potassium channel KCNH2 (Q12809 whole entry): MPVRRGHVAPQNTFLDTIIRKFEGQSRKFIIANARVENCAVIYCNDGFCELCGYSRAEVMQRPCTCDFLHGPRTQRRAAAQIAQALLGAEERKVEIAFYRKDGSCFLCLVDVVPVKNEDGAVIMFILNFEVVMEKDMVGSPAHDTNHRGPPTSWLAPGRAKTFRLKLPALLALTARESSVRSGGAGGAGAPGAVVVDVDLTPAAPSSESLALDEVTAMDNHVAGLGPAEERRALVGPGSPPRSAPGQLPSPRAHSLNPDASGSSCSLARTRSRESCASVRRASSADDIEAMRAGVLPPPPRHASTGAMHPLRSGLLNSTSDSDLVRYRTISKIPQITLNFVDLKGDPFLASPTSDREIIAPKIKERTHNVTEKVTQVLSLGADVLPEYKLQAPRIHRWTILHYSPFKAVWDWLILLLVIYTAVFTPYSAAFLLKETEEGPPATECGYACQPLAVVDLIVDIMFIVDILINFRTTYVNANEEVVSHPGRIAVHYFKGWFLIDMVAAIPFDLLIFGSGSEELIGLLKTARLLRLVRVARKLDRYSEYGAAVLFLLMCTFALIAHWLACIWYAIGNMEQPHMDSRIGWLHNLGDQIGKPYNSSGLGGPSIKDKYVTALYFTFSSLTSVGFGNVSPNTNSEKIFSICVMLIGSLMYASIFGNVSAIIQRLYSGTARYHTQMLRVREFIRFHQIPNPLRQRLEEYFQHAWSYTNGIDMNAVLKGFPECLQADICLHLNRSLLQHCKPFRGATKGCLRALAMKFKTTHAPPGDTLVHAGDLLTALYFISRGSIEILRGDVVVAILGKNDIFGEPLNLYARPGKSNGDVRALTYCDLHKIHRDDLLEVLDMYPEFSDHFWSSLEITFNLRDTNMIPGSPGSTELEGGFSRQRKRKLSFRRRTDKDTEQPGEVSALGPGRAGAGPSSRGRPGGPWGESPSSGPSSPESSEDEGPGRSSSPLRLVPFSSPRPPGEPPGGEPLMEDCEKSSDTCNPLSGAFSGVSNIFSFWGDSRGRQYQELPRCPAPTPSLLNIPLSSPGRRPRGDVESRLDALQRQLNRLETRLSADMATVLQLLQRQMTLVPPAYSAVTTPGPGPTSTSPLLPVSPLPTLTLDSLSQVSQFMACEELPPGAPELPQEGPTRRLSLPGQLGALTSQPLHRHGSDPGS
Chain of hERG (KCNH2) (Q12809 whole entry, the tested form may be a part): as the sequence (Q12809 whole entry) above

Structure (SMILES)	inhibition at 0.25 h, 10 µM [1]	pIC50 [3]	pIC50 [4]	remaining at 0.5 h, 1 µM [5]	Papp at 5 h, 10 µM [6]	inhibition at 0.25 h, 10 µM [7]	remaining at 0.5 h, 1 µM [8]	inhibition at 0.25 h, 10 µM [9]	inhibition at 0.25 h, 10 µM [10]	pIC50 [11]	inhibition at 0.25 h, 10 µM [12]	pIC50 [15]	pIC50 [16]	clearance [17]	further results
CN1CCC[C@@H]1COc1ccc(/C(=C(/CCCO)c2ccccc2)c2ccc(O)cc2)cc1.Cl	17.4%	< 5.00	5.43	29%	0.7 ×10⁻⁶ cm/s	13.3%	27.7%	6.4%	1.9%	< 5.00	20.6%	–	–	–	IC50 at 4 h [2]: > 30 µM
CN1CCC[C@H]1COc1ccc(/C(=C(/CCCO)c2ccccc2)c2ccc(O)cc2)cc1.Cl	16.8%	5.40	5.97	24.8%	2.11 ×10⁻⁶ cm/s	37.2%	30.3%	9.3%	0%	< 5.00	24.6%	–	–	–	Activity [13]: 93%; Activity [14]: 67.4%
CN1CCCC1CCOc1ccc(/C(=C(/CCCO)c2ccccc2)c2ccc(O)cc2)cc1.Cl (stereo unspecified)	18.2%	5.22	–	37.3%	0.01 ×10⁻⁶ cm/s	24.6%	22.5%	18.3%	2.1%	< 5.00	16.3%	7.70	–	–	–
CN1CCCC1CCOc1ccc(/C(=C(/CCCO)c2ccccc2)c2ccc(Br)cc2)cc1.Cl (stereo unspecified)	10.6%	5.05	5.53	67.3%	0.21 ×10⁻⁶ cm/s	3%	59.9%	0%	0%	5.29	9.8%	6.53	5.77	–	–
CN(C)CCOc1ccc(/C(=C(/CCCO)c2ccccc2)c2ccc(O)cc2)cc1	21.8%	–	–	–	0.23 ×10⁻⁶ cm/s	27.1%	–	17.7%	16.4%	–	17%	–	–	45.6 mL/min/kg	–
CN1CCC[C@H]1COc1ccc(/C(=C(/CCCO)c2ccccc2)c2ccc(Br)cc2)cc1.Cl	30.5%	–	–	61.2%	0.93 ×10⁻⁶ cm/s	37.3%	66.2%	35.6%	9.6%	–	55%	–	5.33	74.4 mL/min/kg	Activity [18]: Active; bioavailability [19]: 38.2%; Activity [20]: inactive; Vd [21]: 16.1 L/kg; half-life [22]: 3.4 h
